What was measured:
[1] = Mass transfer of polyol-drug formulations from substrate in device with puffing equipment; effluent collected on Cambridge pads, weighed, nicotine by GC/MS; conditions: after heating in device with PEG
[2] = aerosol formed from the polyol; cited from earlier work

| SMILES | decomposition products from nicotine in the chromatograms (GC/MS of extracts of collected effluent) [1] | MMAD [2] |
| --- | --- | --- |
| CN1CCCC1c1cccnc1 (stereo not shown) [NIC, nicotine] | no measurable decomposition products | – |
| CC(O)CO (stereo not shown) [Propylene Glycol (PEG), Propylene Glycol] | – | less than 0.9 micrometers |
| OCC(O)CO [Glycerin] | – | less than 1.5 micrometers |
| CN1CCCC1c1cccnc1.O=C(O)C(O)C(O)C(=O)O (stereo not shown) [NIC B, nicotine bitartrate] | no measurable decomposition products | – |
